Results on 69 molecules are retold here after ChEMBL document CHEMBL4138237, “Activation of anti-oxidant Nrf2 signaling by enone analogues of curcumin” (Eur J Med Chem, 2018).

The source made the active and inactive calls.

Data set [1] addresses Luciferin 4-monooxygenase (Photinus pyralis, UniProt P08659). As to the kind of experiment: Effect on firefly luciferase activity expressed in human HepG2 cells at low concentration after 5 hrs by luminescence assay. In kind it is ADME, cell-based. The following applies: hepg2, 5 h.
In data set [2] the target is T1, Nuclear factor erythroid 2-related factor 2 (Homo sapiens) (UniProt Q16236).
T1 sequence (whole entry): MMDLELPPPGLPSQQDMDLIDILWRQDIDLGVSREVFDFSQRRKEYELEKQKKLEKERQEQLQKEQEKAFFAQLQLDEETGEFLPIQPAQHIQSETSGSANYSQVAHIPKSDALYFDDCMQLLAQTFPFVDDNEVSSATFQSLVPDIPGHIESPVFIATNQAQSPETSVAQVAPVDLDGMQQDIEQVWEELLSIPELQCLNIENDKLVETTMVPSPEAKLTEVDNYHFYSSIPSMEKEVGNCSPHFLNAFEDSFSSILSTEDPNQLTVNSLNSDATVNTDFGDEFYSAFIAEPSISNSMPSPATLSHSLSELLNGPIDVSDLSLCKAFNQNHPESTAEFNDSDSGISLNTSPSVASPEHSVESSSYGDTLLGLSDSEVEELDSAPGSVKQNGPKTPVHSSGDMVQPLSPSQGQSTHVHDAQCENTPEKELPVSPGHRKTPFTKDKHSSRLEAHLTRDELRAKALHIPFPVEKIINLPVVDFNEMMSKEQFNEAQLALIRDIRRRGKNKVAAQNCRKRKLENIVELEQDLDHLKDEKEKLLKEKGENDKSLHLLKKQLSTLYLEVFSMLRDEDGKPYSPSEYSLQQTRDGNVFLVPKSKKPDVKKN
As to the kind of experiment: Activation of Nrf2 (unknown origin) expressed in human HepG2 cells at 15 uM after 5 hrs by ARE-driven luciferase reporter gene assay relative to control. In kind it is cell-based.

Chain of Luciferin 4-monooxygenase (P08659 whole entry): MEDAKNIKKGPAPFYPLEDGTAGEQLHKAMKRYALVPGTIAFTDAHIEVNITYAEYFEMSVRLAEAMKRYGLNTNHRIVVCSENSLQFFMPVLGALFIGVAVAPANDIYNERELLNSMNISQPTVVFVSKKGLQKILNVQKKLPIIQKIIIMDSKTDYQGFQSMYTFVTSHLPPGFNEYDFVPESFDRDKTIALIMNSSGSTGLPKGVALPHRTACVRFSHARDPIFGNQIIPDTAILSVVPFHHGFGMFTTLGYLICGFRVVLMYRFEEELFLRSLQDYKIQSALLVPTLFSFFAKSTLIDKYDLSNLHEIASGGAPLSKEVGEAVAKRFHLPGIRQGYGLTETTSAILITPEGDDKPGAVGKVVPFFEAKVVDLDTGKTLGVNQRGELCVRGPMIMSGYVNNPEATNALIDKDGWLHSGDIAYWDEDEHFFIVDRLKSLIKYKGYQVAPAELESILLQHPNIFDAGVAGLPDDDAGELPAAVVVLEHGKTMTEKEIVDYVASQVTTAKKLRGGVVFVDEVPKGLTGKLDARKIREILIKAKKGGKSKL

As to `COc1cccc(/C=C/C(=O)CC(=O)/C=C/c2cccc(OC)c2OC)c1OC`, the Activity entry in data set [1] is “Non-Toxic”.
Regarding `COc1ccc(/C=C/C(=O)/C=C/c2ccccc2)cc1`, the Activity result in data set [1] is reported as “Non-Toxic”.
On the same count and under the same terms, for `COc1ccc(/C=C/C(=O)/C=C/c2ccc(OC)cc2OC)c(OC)c1` the value was “Non-Toxic”.
In the case of `O=C(/C=C/c1ccc(O)cc1)CC(=O)/C=C/c1ccc(O)cc1` [BISDEMETHOXYCURCUMIN], the Activity result in data set [1] was “Non-Toxic”. Besides, the outcome in data set [2] was Active.
As to `COc1ccc(/C=C/C(=O)/C=C/c2ccc(OC)c(O)c2)cc1O`, the Activity entry in data set [1] is listed as “Non-Toxic”.
Take `COc1ccccc1/C=C1\CCC/C(=C\c2ccccc2OC)C1=O`: the Activity result in data set [1] is “Non-Toxic”. The result in data set [2] was inactive.
As for `O=C(/C=C/c1ccccc1)c1ccccc1` [CHALCONE], the Activity result in data set [1] is given as “Non-Toxic”. Besides, the result in data set [2] was Active.
In the case of `COc1cccc(OC)c1/C=C/C(=O)/C=C/c1c(OC)cccc1OC`, in data set [1], the Activity result is reported as “Non-Toxic”.
With `O=C1/C(=C/c2cccc(F)c2)CCC/C1=C\c1cccc(F)c1`, the Activity result in data set [1] is “Non-Toxic”.
Take `COc1cc(/C=C2\CCC/C(=C\c3cc(OC)c(OC)c(OC)c3)C2=O)cc(OC)c1OC`: the Activity result in data set [1] is given as “Non-Toxic”.
For the molecule `COc1cc(C(=O)/C=C/c2ccccc2)ccc1O`, in data set [1], the Activity entry is reported as “Non-Toxic”. Besides, the result in data set [2] was Active.
As for `O=C(/C=C/c1ccccc1)/C(Cc1ccccc1)=C(O)/C=C/c1ccccc1`, the Activity result in data set [1] was “Non-Toxic”.
On to `COc1cc(CCC(=O)C(Cc2ccccc2)C(=O)CCc2ccc(O)c(OC)c2)ccc1O`, for which the Activity entry in data set [1] is “Non-Toxic”.
For the molecule `O=C(/C=C/c1c(Cl)cccc1Cl)/C=C/c1c(Cl)cccc1Cl`, the Activity entry in data set [1] is recorded as “Non-Toxic”. For the same molecule, the result in data set [2] was inactive.
On to `COc1ccc(/C=C2\CN(C)C/C(=C\c3ccc(OC)cc3)C2=O)cc1`, for which, in data set [1], the Activity result is on record as “Non-Toxic”.
`COc1cc(OC)c(OC)cc1/C=C/C(=O)/C=C/c1cc(OC)c(OC)cc1OC`: the Activity entry in data set [1] is on record as “Non-Toxic”. In data set [2], this molecule returned a fold change (FC) of 18.2.
Take `O=C1/C(=C/c2ccc(Br)cc2)CCC/C1=C\c1ccc(Br)cc1`: the Activity result in data set [1] was “Non-Toxic”.
As to `O=C(/C=C/c1ccccc1O)/C=C/c1ccccc1O`, the Activity entry in data set [1] is “Non-Toxic”. Besides, the fold change (FC) in data set [2] was determined as 18.5.
Take `O=C(/C=C/c1ccc(Br)cc1)/C=C/c1ccc(Br)cc1`: the Activity result in data set [1] is “Non-Toxic”. Further, the result in data set [2] was inactive.
Consider `COc1ccc(OC)c(/C=C2\CCC/C(=C\c3cc(OC)ccc3OC)C2=O)c1`, for which, in data set [1], the Activity entry is recorded as “Non-Toxic”.
Regarding `CC(=O)Oc1ccc(/C=C/C(=O)/C=C/c2ccc(OC(C)=O)cc2)cc1`, the Activity entry in data set [1] is listed as “Non-Toxic”.
With `COc1cccc(/C=C/C(=O)/C=C/c2cccc(OC)c2OC)c1OC`, the Activity result in data set [1] is given as “Non-Toxic”.
With `O=C(/C=C/c1cccc(O)c1)/C=C/c1cccc(O)c1`, the Activity result in data set [1] is on record as “Non-Toxic”.
Turning to `O=C(/C=C/c1cccc(Cl)c1)/C=C/c1cccc(Cl)c1`, the Activity entry in data set [1] is on record as “Non-Toxic”. For the same molecule, the outcome in data set [2] was inactive.
As to `O=C(/C=C/c1ccccc1)C(Cc1ccccc1)(Cc1ccccc1)C(=O)/C=C/c1ccccc1`, the Activity entry in data set [1] was “Non-Toxic”. For the same molecule, the result in data set [2] was Active.
For the molecule `COc1cc(/C=C/C(=O)/C=C/c2cc(OC)cc(OC)c2)cc(OC)c1`, the Activity result in data set [1] is “Non-Toxic”.
In the case of `O=C1/C(=C/c2cccc(O)c2)CCC/C1=C\c1cccc(O)c1`, the Activity result in data set [1] is on record as “Non-Toxic”.
With `O=C(O)c1ccc(C(=O)/C=C/c2ccccc2)cc1`, in data set [1], the Activity entry is recorded as “Non-Toxic”.
`CSc1ccc(/C=C2\CN(C)C/C(=C\c3ccc(SC)cc3)C2=O)cc1`: in data set [1], the Activity result is given as “Non-Toxic”.
As for `COc1cc(/C=C2\CCC/C(=C\c3ccc(O)c(OC)c3)C2=O)ccc1O` [CYCLOVALONE], the Activity result in data set [1] is listed as “Non-Toxic”.
Take `COc1cc(/C=C2\CN(C)C/C(=C\c3cc(OC)c(OC)c(OC)c3)C2=O)cc(OC)c1OC`: in data set [1], the Activity result was “Non-Toxic”. In addition, the result in data set [2] was inactive.
Turning to `N#Cc1ccc(C(=O)/C=C/c2ccccc2)cc1`, the Activity entry in data set [1] is on record as “Non-Toxic”.
Regarding `CN(C)c1ccc(/C=C/C(=O)CC(=O)/C=C/c2ccc(N(C)C)cc2)cc1`, the Activity result in data set [1] was “Non-Toxic”. In data set [2], the outcome was inactive.
Turning to `COc1cccc(/C=C/C(=O)CC(=O)/C=C/c2cccc(OC)c2)c1`, in data set [1], the Activity entry is “Non-Toxic”. Moreover, in data set [2], the outcome was Active.
Consider `O=C(/C=C/c1ccc(Cl)cc1)CC(=O)/C=C/c1ccc(Cl)cc1`, for which the Activity result in data set [1] was “Non-Toxic”. For the same molecule, the outcome in data set [2] was inactive.
`COc1cc(/C=C/C(=O)CC(=O)/C=C/c2ccc(O)c(OC)c2)ccc1O` [CURCUMIN]: the Activity result in data set [1] is recorded as “Non-Toxic”. The molecule also yielded a fold change (FC) in data set [2] of 22.6.
As to `COc1cccc(/C=C2\CCC/C(=C\c3cccc(OC)c3)C2=O)c1`, the Activity result in data set [1] is “Non-Toxic”. Also, the result in data set [2] was Active.
With `C/C(C(=O)/C=C/c1ccccc1)=C(O)\C=C\c1ccccc1`, in data set [1], the Activity entry is on record as “Non-Toxic”.
In the case of `COc1ccccc1/C=C/C(=O)CC(=O)/C=C/c1ccccc1OC`, the Activity entry in data set [1] is “Non-Toxic”.
Same read-out and setting: for `COc1ccc(/C=C/C(=O)CC(=O)/C=C/c2ccc(OC)c(OC)c2)cc1OC` [TETRAMETHOXYCURCUMIN] the value was “Non-Toxic”.
Regarding `O=C(CCc1ccccc1)CCc1ccccc1`, the Activity result in data set [1] was “Non-Toxic”. In addition, the result in data set [2] was inactive.
As to `COc1cc(/C=C/C(=O)/C=C/c2ccccc2)ccc1O`, the Activity result in data set [1] was “Non-Toxic”.
Turning to `O=C(/C=C/c1cccc(O)c1)CC(=O)/C=C/c1cccc(O)c1`, the Activity entry in data set [1] is listed as “Non-Toxic”. The outcome in data set [2] was Active.
With `CC(=O)/C=C/c1ccccc1O`, the Activity result in data set [1] is listed as “Non-Toxic”.
With `CN1C/C(=C\c2cccc(Br)c2)C(=O)/C(=C/c2cccc(Br)c2)C1`, in data set [1], the Activity entry is “Non-Toxic”. The outcome in data set [2] was Active.
As to `COc1cccc(/C=C2\CN(C)C/C(=C\c3cccc(OC)c3)C2=O)c1`, the Activity entry in data set [1] is recorded as “Non-Toxic”.
Turning to `COc1ccc(/C=C2\CN(C)C/C(=C\c3ccc(OC)cc3OC)C2=O)c(OC)c1`, the Activity entry in data set [1] was “Non-Toxic”.
In the case of `Cc1ccc(C(=O)/C=C/c2ccccc2)c(C)c1`, the Activity result in data set [1] is “Non-Toxic”. The same molecule returned a fold change (FC) in data set [2] of 29.9.
As for `COc1ccc(/C=C2\CCC/C(=C\c3ccc(OC)cc3OC)C2=O)c(OC)c1`, in data set [1], the Activity result is recorded as “Non-Toxic”. Also, the result in data set [2] was inactive.
The like results for `Cc1ccc(/C=C/C(=O)CC(=O)/C=C/c2ccc(C)cc2)cc1` were, in that order, “Non-Toxic” and “inactive”.
Consider `COc1ccc(/C=C2\CCC/C(=C\c3ccc(OC)cc3)C2=O)cc1`, for which the Activity result in data set [1] is reported as “Non-Toxic”. Moreover, in data set [2], the outcome was inactive.
For the molecule `COc1ccc(/C=C2\CCC/C(=C\c3ccc(OC)c(OC)c3OC)C2=O)c(OC)c1OC`, the Activity entry in data set [1] was “Non-Toxic”.
Regarding `CCOc1ccc(/C=C2\CN(C)C/C(=C\c3ccc(OCC)cc3)C2=O)cc1`, the Activity entry in data set [1] is given as “Non-Toxic”.
Consider `O=C(O)c1ccc(/C=C/C(=O)c2ccccc2)cc1`, for which the Activity result in data set [1] was “Non-Toxic”. In data set [2], the result was Active.
On to `COc1cc(/C=C2\CN(C)C/C(=C\c3cc(OC)cc(OC)c3)C2=O)cc(OC)c1`, for which, in data set [1], the Activity result is reported as “Non-Toxic”.
Regarding `O=C(/C=C/c1ccc(Cl)cc1)/C=C/c1ccc(Cl)cc1`, the Activity entry in data set [1] was “Non-Toxic”. The outcome in data set [2] was inactive.
The like results for `COc1cc(/C=C/C(=O)CC(=O)/C=C/c2cc(OC)cc(OC)c2)cc(OC)c1` were, in that order, “Non-Toxic” and “Active”.
Turning to `COc1ccc(OC)c(/C=C/C(=O)CC(=O)/C=C/c2cc(OC)ccc2OC)c1`, the Activity entry in data set [1] was “Non-Toxic”. Also, the outcome in data set [2] was Active.
Take `COc1ccc(/C=C2\CCC/C(=C\c3ccc(OC)c(OC)c3)C2=O)cc1OC`: in data set [1], the Activity entry is “Non-Toxic”.
For `COc1cccc(/C=C2\CCC/C(=C\c3cccc(OC)c3OC)C2=O)c1OC`, the Activity result in data set [1] is on record as “Non-Toxic”.
`COc1ccccc1/C=C/C(=O)/C=C/c1ccccc1OC`: in data set [1], the Activity result is “Non-Toxic”.
With `COc1ccc(/C=C/C(C)=O)cc1`, the Activity result in data set [1] is reported as “Non-Toxic”.
Turning to `COc1cccc(/C=C2\CN(C)C/C(=C\c3cccc(OC)c3OC)C2=O)c1OC`, the Activity entry in data set [1] is “Non-Toxic”.
`O=C(/C=C(\O)c1ccccc1)c1ccccc1`: the Activity result in data set [1] is “Non-Toxic”.
As for `CC(C(=O)CCc1ccccc1)C(=O)CCc1ccccc1`, in data set [1], the Activity result is on record as “Non-Toxic”.
The same measure, in the same setting: for `COc1cc(/C=C/C(=O)/C=C/c2ccc(OC(C)=O)c(OC)c2)ccc1OC(C)=O` the value was “Non-Toxic”.
For `COc1ccc(/C=C/C(=O)/C=C/c2ccc(OC)c(OC)c2)cc1OC`, the Activity result in data set [1] was “Non-Toxic”.
The same measure, in the same setting: to `COc1ccc(/C=C2\CN(C)C/C(=C\c3ccc(OC)c(OC)c3OC)C2=O)c(OC)c1OC` belongs “Non-Toxic”.
In the case of `O=C(CCc1ccccc1)C(Cc1ccccc1)C(=O)CCc1ccccc1`, the Activity entry in data set [1] was “Non-Toxic”.
